According to ChEMBL document CHEMBL1121705, “Synthesis and angiotensin-converting enzyme inhibitory activity of 3-(Mercaptomethyl)-2-oxo-1-pyrrolidineacetic acids and 3-(Mercaptomethyl)-2-oxo-1-piperidineacetic acids” (J Med Chem, 1981):

Target: Angiotensin-converting enzyme (Homo sapiens, UniProt P12821)
Assay: Concentration required for 50% inhibition of Angiotensin I converting enzyme; call rule not given here
Assay type: protein assay, Cavia porcellus

Angiotensin-converting enzyme, sequence (P12821 whole entry): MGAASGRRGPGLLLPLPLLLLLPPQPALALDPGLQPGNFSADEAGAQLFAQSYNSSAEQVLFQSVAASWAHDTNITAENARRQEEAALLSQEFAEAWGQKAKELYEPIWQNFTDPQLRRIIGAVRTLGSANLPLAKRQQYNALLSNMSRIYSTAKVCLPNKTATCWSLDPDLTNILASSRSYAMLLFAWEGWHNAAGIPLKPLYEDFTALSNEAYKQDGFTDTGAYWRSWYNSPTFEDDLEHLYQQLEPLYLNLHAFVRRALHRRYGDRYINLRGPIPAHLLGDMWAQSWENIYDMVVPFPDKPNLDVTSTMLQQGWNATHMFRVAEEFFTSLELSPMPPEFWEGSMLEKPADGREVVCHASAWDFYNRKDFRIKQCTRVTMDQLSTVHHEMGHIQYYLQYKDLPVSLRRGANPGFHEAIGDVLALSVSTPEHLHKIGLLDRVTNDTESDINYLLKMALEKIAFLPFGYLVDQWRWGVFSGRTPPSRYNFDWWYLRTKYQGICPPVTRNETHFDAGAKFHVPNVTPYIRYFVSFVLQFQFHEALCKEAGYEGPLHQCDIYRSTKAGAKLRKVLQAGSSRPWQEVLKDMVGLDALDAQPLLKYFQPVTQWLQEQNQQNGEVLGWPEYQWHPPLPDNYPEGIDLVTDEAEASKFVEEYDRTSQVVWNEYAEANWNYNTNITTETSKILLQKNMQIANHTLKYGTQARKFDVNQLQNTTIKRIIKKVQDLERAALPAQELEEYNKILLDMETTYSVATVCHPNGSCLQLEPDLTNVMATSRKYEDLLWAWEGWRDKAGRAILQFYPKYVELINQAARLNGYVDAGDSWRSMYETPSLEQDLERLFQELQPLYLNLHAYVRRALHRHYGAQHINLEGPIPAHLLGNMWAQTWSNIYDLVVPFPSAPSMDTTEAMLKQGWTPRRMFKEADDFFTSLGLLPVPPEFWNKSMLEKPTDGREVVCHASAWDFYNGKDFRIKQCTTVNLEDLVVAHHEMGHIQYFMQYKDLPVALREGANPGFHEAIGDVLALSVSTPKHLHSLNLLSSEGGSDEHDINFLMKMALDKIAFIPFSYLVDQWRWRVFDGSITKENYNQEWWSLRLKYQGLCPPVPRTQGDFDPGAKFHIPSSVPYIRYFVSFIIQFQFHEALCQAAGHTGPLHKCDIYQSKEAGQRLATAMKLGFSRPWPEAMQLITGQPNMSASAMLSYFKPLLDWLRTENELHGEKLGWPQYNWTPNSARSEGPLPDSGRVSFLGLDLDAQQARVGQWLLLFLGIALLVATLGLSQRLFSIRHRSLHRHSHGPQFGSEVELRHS

CC(=O)SCC1CCCN(CC(N)=O)C1=O (stereo unspecified) was tested, and the IC50 was “Not Active”.
